Source: patent publication US4327097A, “Novel penicillins” (Toyama Chemical Co., Ltd., priority 1974, dated 1982)
Values after ≈ are worked out from the molar mass of the structure shown. Structures can show the parent of a compound that is named as a salt. Blank lines part the entries; values can stand above or below the compound they belong to.

Experiments:
Type in all cases: cell-based
Staphylococcus aureus = test: MIC against clinical isolates; conditions: Table 5-1, clinical isolate; unit assumed
Shigella flexneri = test: MIC against clinical isolates; conditions: Table 5-5, clinical isolate; unit assumed
Experimental: (§1) The minimum inhibitory concentration (MIC) was determined by the plate method disclosed in "Chemotherapy" (Japan), Vol. 16, (1968), pages 98-99. The culture medium used was a Heart infusion agar (pH 7.4). The number of the cells per plate used in the inoculum was 10^4 (10^6 cells/ml).
(§2) MIC was determined in the same manner as in the preceding paragraph (1).

Shigella sonnei = test: MIC against clinical isolates; conditions: Table 5-5, clinical isolate; unit assumed
Experimental: as §1, §2

Escherichia coli NIHJ = test: MIC, plate method, standard strains; conditions: unit assumed; for MIC Esche--richin coil NIHJ: Table 3, standard strain
Experimental: as §1

Klebsiella pneumoniae [1] = test: MIC, plate method, standard strains; conditions: unit assumed
Experimental: as §1

[2] = test system: Staphylococcus aureus 209p; test: MIC, plate method, standard strains; conditions: Table 3, standard strain, Heart infusion agar pH 7.4; unit assumed
Experimental: as §1

Proteus vulgaris 3027 = test: MIC, plate method, standard strains; conditions: unit assumed
Experimental: as §1

Escherichia coli = test: MIC against clinical isolates; conditions: unit assumed
[3] = test system: Pseudomonas aeruginosa I.F.O.; test: MIC, plate method, standard strains; conditions: Table 3, standard strain; unit assumed
Experimental: as §1

Pseudomonas aeruginosa = test: MIC against clinical isolates; conditions: unit assumed
Klebsiella pneumoniae [4] = test: MIC against clinical isolates; conditions: Table 6-4, clinical isolate; unit assumed

SMILES: CCCCN1CCN(C(=O)N[C@@H](C(=O)N[C@@H]2C(=O)N3[C@@H]2SC(C)(C)[C@@H]3C(=O)O)c2ccccc2)C(=O)C1 [Compound 14]
MIC Staphylococcus aureus F-2 (Staphylococcus aureus): 1.57 µg/mL (≈ 2.95 µM)
MIC Staphylococcus aureus F-4 (Staphylococcus aureus): 6.25 µg/mL (≈ 11.8 µM)
MIC Staphylococcus aureus MS 8588 (Staphylococcus aureus): 3.13 µg/mL (≈ 5.89 µM)
MIC Staphylococcus aureus MS 8596 (Staphylococcus aureus): 3.13 µg/mL (≈ 5.89 µM)
MIC Staphylococcus aureus MS 8684 (Staphylococcus aureus): 3.13 µg/mL (≈ 5.89 µM)
MIC Staphylococcus aureus MS 8713 (Staphylococcus aureus): 3.13 µg/mL (≈ 5.89 µM)
MIC Shigella flexneri JS 11215 (Shigella flexneri): 25 µg/mL (≈ 47 µM)
MIC Shigella flexneri JS 11839 (Shigella flexneri): 3.13 µg/mL (≈ 5.89 µM)
MIC Shigella sonnei JS 11232 (Shigella sonnei): 25 µg/mL (≈ 47 µM)
MIC Shigella sonnei JS 11755 (Shigella sonnei): 6.25 µg/mL (≈ 11.8 µM)
MIC Esche--richin coil NIHJ (Escherichia coli NIHJ): < 1.57 µg/mL
MIC Klebsiella pneumoniae (Klebsiella pneumoniae [1]; Table 3, standard strain): 3.13 µg/mL (≈ 5.89 µM)
MIC Staphylococcus aureus 209p [2]: < 1.57 µg/mL
MIC Proteus vulgaris 3027 (Proteus vulgaris 3027; Table 3, standard strain): < 1.57 µg/mL
MIC Escherichia coli GN 3435 (Escherichia coli; Table 5-2, clinical isolate): 6.25 µg/mL (≈ 11.8 µM)
MIC Escherichia coli GN 3452 (Escherichia coli; Table 5-2, clinical isolate): 6.25 µg/mL (≈ 11.8 µM)
MIC Escherichia coli GN 3481 (Escherichia coli; Table 5-2, clinical isolate): 6.25 µg/mL (≈ 11.8 µM)
MIC Escherichia coli K-1 (Escherichia coli; Table 5-2, clinical isolate): 3.13 µg/mL (≈ 5.89 µM)
MIC Escherichia coli K-4 (Escherichia coli; Table 5-2, clinical isolate): 6.25 µg/mL (≈ 11.8 µM)

SMILES: CC1(C)S[C@@H]2[C@H](NC(=O)[C@H](NC(=O)N3CCN(C(=O)Nc4ccccc4)C(=O)C3)c3ccccc3)C(=O)N2[C@H]1C(=O)O [Compound 33]
MIC Pseudomonas aeruginosa I.F.C [3]: 50 µg/mL (≈ 84.1 µM)
MIC Esche--richin coil NIHJ (Escherichia coli NIHJ): < 1.57 µg/mL
MIC Staphylococcus aureus 209p [2]: < 1.57 µg/mL

MIC Pseudomonas aeruginosa I.F.C [3]: 100 µg/mL (≈ 168 µM)
MIC Klebsiella pneumoniae (Klebsiella pneumoniae [1]; Table 3, standard strain): 50 µg/mL (≈ 84.2 µM)
MIC Proteus vulgaris 3027 (Proteus vulgaris 3027; Table 3, standard strain): 50 µg/mL (≈ 84.2 µM)
SMILES: CC1(C)S[C@@H]2[C@H](NC(=O)[C@H](NC(=O)N3CC(=O)N(C(=O)c4ccccc4)CC3=O)c3ccccc3)C(=O)N2[C@H]1C(=O)O [Compound 34]

MIC Pseudomonas aeruginosa I.F.C [3]: 100 µg/mL (≈ 173 µM)
SMILES: CC1(C)S[C@@H]2[C@H](NC(=O)[C@H](NC(=O)N3CC(=O)N(Cc4ccccc4)CC3=O)c3ccccc3)C(=O)N2[C@H]1C(=O)O [Compound 35]

MIC Pseudomonas aeruginosa GN (Pseudomonas aeruginosa; Table 6-3, clinical isolate, strain number not given): 25 µg/mL (≈ 43.6 µM)
MIC Pseudomonas aeruginosa GN4 (Pseudomonas aeruginosa; Table 6-3, clinical isolate): 12.5 µg/mL (≈ 21.8 µM)
SMILES: CCN1CCN(C(=O)NC(C(=O)NC2C(=O)N3C(C(=O)O)=C(COC(C)=O)CSC23)c2ccccc2)C(=O)C1=O (centres unmarked) [Compound No. 61]

MIC Escherichia coli NIHJ (Escherichia coli NIHJ; Table 4, standard strain): < 0.79 µg/mL
MIC Klebsiella pneumoniae (Klebsiella pneumoniae [1]; Table 4, standard strain): < 0.79 µg/mL
MIC Pseudomonas aeruginosa GN4 (Pseudomonas aeruginosa; Table 6-3, clinical isolate): 12.5 µg/mL (≈ 21.6 µM)
MIC Pseudomonas aeruginosa GN 1035 (Pseudomonas aeruginosa; Table 6-3, clinical isolate): 50 µg/mL (≈ 86.4 µM)
MIC Pseudomonas aeruginosa GN 2565 (Pseudomonas aeruginosa; Table 6-3, clinical isolate): 50 µg/mL (≈ 86.4 µM)
SMILES: CN1CCN(C(=O)N[C@@H](C(=O)N[C@@H]2C(=O)N3C(C(=O)[O-])=C(C[n+]4ccccc4)CS[C@H]23)c2ccccc2)C(=O)C1=O [Compound No. 68]

SMILES: CC(=O)N1CCN(C(=O)N[C@@H](C(=O)N[C@@H]2C(=O)N3[C@@H]2SC(C)(C)[C@@H]3C(=O)O)c2ccccc2)C(=O)C1 [Example 1, sodium salt of 6-[D(-)-α-(4-acetyl-2-oxo-1-piperazinocarbonylamino)phenylacetamido]penicillanic acid]
MIC Staphylococcus aureus F-1 (Staphylococcus aureus): 12.5 µg/mL
MIC Staphylococcus aureus F-2 (Staphylococcus aureus): 3.13 µg/mL
MIC Staphylococcus aureus F-4 (Staphylococcus aureus): 6.25 µg/mL
MIC Staphylococcus aureus MS 8588 (Staphylococcus aureus): 6.25 µg/mL
MIC Staphylococcus aureus MS 8596 (Staphylococcus aureus): 3.13 µg/mL
MIC Staphylococcus aureus MS 8684 (Staphylococcus aureus): 3.13 µg/mL
MIC Staphylococcus aureus MS 8713 (Staphylococcus aureus): 3.13 µg/mL
MIC Shigella flexneri JS 11215 (Shigella flexneri): 100 µg/mL
MIC Shigella flexneri JS 11839 (Shigella flexneri): 3.13 µg/mL
MIC Shigella sonnei JS 11232 (Shigella sonnei): > 200 µg/mL
MIC Shigella sonnei JS 11755 (Shigella sonnei): 12.5 µg/mL
MIC Escherichia coli GN 3435 (Escherichia coli; Table 5-2, clinical isolate): 6.25 µg/mL
MIC Escherichia coli GN 3452 (Escherichia coli; Table 5-2, clinical isolate): 12.5 µg/mL
MIC Escherichia coli GN 3481 (Escherichia coli; Table 5-2, clinical isolate): 12.5 µg/mL
MIC Escherichia coli K-1 (Escherichia coli; Table 5-2, clinical isolate): 6.25 µg/mL
MIC Escherichia coli K-4 (Escherichia coli; Table 5-2, clinical isolate): 12.5 µg/mL

SMILES: Cc1nnc(SCC2=C(C(=O)O)N3C(=O)[C@@H](NC(=O)Cn4cnnn4)[C@H]3SC2)s1 [Sodium Cephazolin, reference compound]
MIC Pseudomonas aeruginosa GN4 (Pseudomonas aeruginosa; Table 6-3, clinical isolate): > 200 µg/mL
MIC Pseudomonas aeruginosa S-4 (Pseudomonas aeruginosa; Table 6-4, clinical isolate): > 200 µg/mL
MIC Escherichia coli GN 3435 (Escherichia coli; Table 6-2, clinical isolate): 1.56 µg/mL
MIC Escherichia coli GN 3452 (Escherichia coli; Table 6-2, clinical isolate): 1.56 µg/mL
MIC Escherichia coli GN 3481 (Escherichia coli; Table 6-2, clinical isolate): 1.56 µg/mL
MIC Escherichia coli K-1 (Escherichia coli; Table 6-2, clinical isolate): 1.56 µg/mL
MIC Escherichia coli K-2 (Escherichia coli; Table 6-2, clinical isolate): 1.56 µg/mL
MIC Escherichia coli K-4 (Escherichia coli; Table 6-2, clinical isolate): 3.13 µg/mL
MIC Klebsiella pneumoniae GN 917 (Klebsiella pneumoniae [4]): 1.56 µg/mL
MIC Klebsiella pneumoniae GN 4081 (Klebsiella pneumoniae [4]): 3.13 µg/mL
MIC Klebsiella pneumoniae GN 4117 (Klebsiella pneumoniae [4]): 3.13 µg/mL

SMILES: CN1CCN(C(=O)NC(C(=O)N[C@@H]2C(=O)N3[C@@H]2SC(C)(C)[C@@H]3C(=O)O)c2cccs2)C(=O)C1=O (some centres unmarked) [compound 58]
MIC Esche--richin coil NIHJ (Escherichia coli NIHJ): < 1.57 µg/mL
MIC Staphylococcus aureus 209p [2]: < 1.57 µg/mL

SMILES: CC1(C)S[C@@H]2[C@H](NC(=O)[C@H](N)c3ccccc3)C(=O)N2[C@H]1C(=O)O [drawing 185, reference compound]
MIC Esche--richin coil NIHJ (Escherichia coli NIHJ): < 1.57 µg/mL
MIC Staphylococcus aureus 209p [2]: < 1.57 µg/mL

SMILES: CC1(C)S[C@@H]2[C@H](NC(=O)C(c3ccccc3)S(=O)(=O)O)C(=O)N2[C@H]1C(=O)O (some centres unmarked) [drawing 187, reference compound]
MIC Esche--richin coil NIHJ (Escherichia coli NIHJ): 1.57 µg/mL (≈ 3.79 µM)

SMILES: CC(=O)N1CCN(C(=O)N[C@@H](C(=O)N[C@@H]2C(=O)N3[C@@H]2SC(C)(C)[C@@H]3C(=O)O)c2ccccc2)C(=O)C1 [drawing 188]
MIC Klebsiella pneumoniae (Klebsiella pneumoniae [1]; Table 3, standard strain): 12.5 µg/mL (≈ 24.2 µM)
MIC Proteus vulgaris 3027 (Proteus vulgaris 3027; Table 3, standard strain): 3.13 µg/mL (≈ 6.05 µM)

SMILES: CC(=O)OCC1=C(C(=O)O)N2C(=O)[C@@H](NC(=O)[C@H](N)c3ccccc3)[C@H]2SC1 [drawing 247, reference compound]
MIC Klebsiella pneumoniae (Klebsiella pneumoniae [1]; Table 4, standard strain): < 1.57 µg/mL
MIC Proteus vulgaris 3027 (Proteus vulgaris 3027; Table 4, standard strain): 100 µg/mL (≈ 247 µM)

SMILES: Cc1nnc(SCC2=C(C(=O)O)N3C(=O)[C@@H](NC(=O)Cn4cnnn4)[C@H]3SC2)s1 [drawing 249, reference compound]
MIC Klebsiella pneumoniae (Klebsiella pneumoniae [1]; Table 4, standard strain): 1.57 µg/mL (≈ 3.45 µM)
MIC Proteus vulgaris 3027 (Proteus vulgaris 3027; Table 4, standard strain): 200 µg/mL (≈ 440 µM)
